The values that follow come from patent US10517889B2, “Modulators of SMAD7 expression” (Ionis Pharmaceuticals, Inc., priority 2017, dated 2019).

Strand notation (5' to 3'): a small letter for the sugar, then the base; units joined by * are phosphorothioate-linked, units joined directly phosphodiester-linked; [ ] holds rarer units or linkages, { } end groups; capitals alone tell only the bases. k = constrained ethyl (cEt); [5mC] = 5-methylcytosine; d = 2'-deoxy (DNA)

The first series deals with human SMAD7 mRNA. Kind of series: Antisense inhibition of human SMAD7 mRNA expression in Hep3B cells by 3-10-3 cEt gapmers, 10,000 nM, electroporation (Example 2). The series is classed as cell-based. Conditions: Hep3B cells, 10,000 nM antisense oligonucleotide, electroporation, approximately 24 hours, RT-PCR primer probe set RTS5062, relative to untreated control cells. Summed up:
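Hep3B cells (20,000/well) were electroporated with 10,000 nM 3-10-3 cEt gapmer (16-mer, phosphorothioate, 5-methylcytosines) and harvested after about 24 h. SMAD7 mRNA quantified by RT-qPCR with primer probe set RTS5062, normalized to total RNA by RiboGreen; percent inhibition relative to untreated cells.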
“798906 (kG*k[5mC]*kT*dA*d[5mC]*d[5mC]*dG*dG*d[5mC]*dT*dG*dT*dT*kG*kA*kA; antisense) [compound 798906]”: the % Inhibition (as a rule, the drop in the measured response relative to a control, in per cent) came to 0%.
Still for that read-out and setting: for “798907 (kG*k[5mC]*kG*dG*d[5mC]*dT*dA*d[5mC]*d[5mC]*dG*dG*d[5mC]*dT*kG*kT*kT; antisense) [compound 798907]” the value was 0%; for “798908 (k[5mC]*kG*k[5mC]*dG*dG*d[5mC]*dT*dA*d[5mC]*d[5mC]*dG*dG*d[5mC]*kT*kG*kT; antisense) [compound 798908]”, 0%; for “798909 (kA*k[5mC]*kG*d[5mC]*dG*dG*d[5mC]*dT*dA*d[5mC]*d[5mC]*dG*dG*k[5mC]*kT*kG; antisense) [compound 798909]”, 42%.
The same measure, in the same setting: the result for “798910 (k[5mC]*kA*k[5mC]*dG*d[5mC]*dG*dG*d[5mC]*dT*dA*d[5mC]*d[5mC]*dG*kG*k[5mC]*kT; antisense) [compound 798910]” reads 42%; that for “798911 (kG*k[5mC]*kA*d[5mC]*dG*d[5mC]*dG*dG*d[5mC]*dT*dA*d[5mC]*d[5mC]*kG*kG*k[5mC]; antisense) [compound 798911]”, 0%; that for “798912 (kT*k[5mC]*k[5mC]*dG*d[5mC]*dA*d[5mC]*dG*d[5mC]*dG*dG*d[5mC]*dT*kA*k[5mC]*k[5mC]; antisense) [compound 798912]”, 22%.
Take “798913 (k[5mC]*k[5mC]*k[5mC]*dT*d[5mC]*d[5mC]*dG*d[5mC]*dA*d[5mC]*dG*d[5mC]*dG*kG*k[5mC]*kT; antisense) [compound 798913]”: the “% Inhibition” value turned out to be 21%.
In the case of “798914 (kG*kT*k[5mC]*d[5mC]*d[5mC]*d[5mC]*dT*d[5mC]*d[5mC]*dG*d[5mC]*dA*d[5mC]*kG*k[5mC]*kG; antisense) [compound 798914]”, the “% Inhibition” value was 56%.
Same read-out and setting: for “798925 (kA*kG*kT*dA*dG*dT*dT*dT*dG*dA*dA*dG*dT*kG*kT*kG; antisense) [compound 798925]” the value was 0%.
On the same count and under the same terms, the result for “798926 (antisense k[5mC]*kA*kA*dA*dG*dT*dA*dG*dT*dT*dT*dG*dA*kA*kG*kT) [compound 798926]” reads 17%.
Still for that read-out and setting: the result for “798927 (antisense k[5mC]*kA*kG*d[5mC]*dA*dA*dA*dG*dT*dA*dG*dT*dT*kT*kG*kA) [compound 798927]” reads 0%; that for “798928 (antisense kT*kA*kG*d[5mC]*dA*dG*d[5mC]*dA*dA*dA*dG*dT*dA*kG*kT*kT) [compound 798928]”, 6%; that for “798929 (antisense kT*kA*kT*dT*dA*dG*d[5mC]*dA*dG*d[5mC]*dA*dA*dA*kG*kT*kA) [compound 798929]”, 41%.
Turning to “798930 (antisense kG*kA*kA*dA*dA*dT*dA*dT*dT*dA*dG*d[5mC]*dA*kG*k[5mC]*kA) [compound 798930]”, the “% Inhibition” value turned out to be 62%.

The series is the same for the next values; noted with them: Hep3B cells, electroporation with 10,000 nM antisense oligonucleotide, approximately 24 hours, SMAD7 mRNA by RT-PCR (RTS5062), relative to untreated control cells.
With “798915 (kT*k[5mC]*kT*dG*dT*d[5mC]*d[5mC]*d[5mC]*d[5mC]*dT*d[5mC]*d[5mC]*dG*k[5mC]*kA*k[5mC]; antisense) [compound 798915]”, the “% Inhibition” value was found to be 7%.
Same read-out and setting: the result for “798916 (k[5mC]*kG*k[5mC]*dT*d[5mC]*dT*dG*dT*d[5mC]*d[5mC]*d[5mC]*d[5mC]*dT*k[5mC]*k[5mC]*kG; antisense) [compound 798916]” reads 13%; that for “798917 (kG*k[5mC]*kT*d[5mC]*dA*d[5mC]*dG*d[5mC]*dT*d[5mC]*dT*dG*dT*k[5mC]*k[5mC]*k[5mC]; antisense) [compound 798917]”, 0%; that for “798918 (kT*k[5mC]*kA*dG*d[5mC]*dT*d[5mC]*dA*d[5mC]*dG*d[5mC]*dT*d[5mC]*kT*kG*kT; antisense) [compound 798918]”, 44%.
For the substance “798919 (kT*kG*k[5mC]*dT*d[5mC]*dA*dG*d[5mC]*dT*d[5mC]*dA*d[5mC]*dG*k[5mC]*kT*k[5mC]; antisense) [compound 798919]”, the “% Inhibition” value stood at 45%.
In the case of “798920 (kG*k[5mC]*k[5mC]*dT*dG*d[5mC]*dT*d[5mC]*dA*dG*d[5mC]*dT*d[5mC]*kA*k[5mC]*kG; antisense) [compound 798920]”, the “% Inhibition” value was 58%.
In the case of “798921 (kG*kG*k[5mC]*d[5mC]*dT*dG*d[5mC]*dT*d[5mC]*dA*dG*d[5mC]*dT*k[5mC]*kA*k[5mC]; antisense) [compound 798921]”, the “% Inhibition” value amounted to 42%.
For “798922 (kA*kA*kG*dT*dG*dT*dG*dG*d[5mC]*d[5mC]*dT*dG*d[5mC]*kT*k[5mC]*kA; antisense) [compound 798922]”, the “% Inhibition” value was determined as 59%.
Regarding “798923 (kT*kT*kG*dA*dA*dG*dT*dG*dT*dG*dG*d[5mC]*d[5mC]*kT*kG*k[5mC]; antisense) [compound 798923]”, the “% Inhibition” value stood at 54%.

The same series, now with this note: Hep3B cells, electroporation with 10,000 nM antisense oligonucleotide, approximately 24 hours, primer probe set RTS5062, relative to untreated control cells.
Turning to “798924 (kA*kG*kT*dT*dT*dG*dA*dA*dG*dT*dG*dT*dG*kG*k[5mC]*k[5mC]; antisense) [compound 798924]”, the “% Inhibition” value is 43%.
Regarding “798932 (antisense k[5mC]*kT*k[5mC]*dA*dG*dG*dA*dG*dG*dA*dA*dA*dA*kT*kA*kT) [compound 798932]”, the “% inhibition of SMAD7 mRNA expression” value was 0%.
Take “798933 (antisense kG*k[5mC]*kA*d[5mC]*dT*d[5mC]*dA*dG*dG*dA*dG*dG*dA*kA*kA*kA) [compound 798933]”: the “% inhibition of SMAD7 mRNA expression” value came to 52%.
On the same count and under the same terms, the result for “798934 (antisense kG*k[5mC]*kA*dA*dG*d[5mC]*dA*d[5mC]*dT*d[5mC]*dA*dG*dG*kA*kG*kG) [compound 798934]” reads 40%.
Regarding “798935 (antisense kA*kA*kA*dG*d[5mC]*dA*dA*dG*d[5mC]*dA*d[5mC]*dT*d[5mC]*kA*kG*kG) [compound 798935]”, the “% Inhibition” value was determined as 48%.
Take “798936 (antisense kG*k[5mC]*kA*dT*dG*dA*dA*dA*dA*dG*d[5mC]*dA*dA*kG*k[5mC]*kA) [compound 798936]”: the “% Inhibition” value was 14%.
On to “798937 (antisense kG*kT*kT*dT*dG*d[5mC]*dA*dT*dG*dA*dA*dA*dA*kG*k[5mC]*kA) [compound 798937]”, for which the “% Inhibition” value was determined as 35%.
As to “798938 (antisense kA*k[5mC]*k[5mC]*dA*dA*dA*dG*dA*dG*dT*dT*dT*dG*k[5mC]*kA*kT) [compound 798938]”, the “% Inhibition” value is given as 15%.
The same measure, in the same setting: the result for “798939 (antisense kA*k[5mC]*kG*dA*d[5mC]*d[5mC]*dA*dA*dA*dG*dA*dG*dT*kT*kT*kG) [compound 798939]” reads 46%; that for “798940 (antisense kA*kA*kA*dA*d[5mC]*dG*dA*d[5mC]*d[5mC]*dA*dA*dA*dG*kA*kG*kT) [compound 798940]”, 29%.
Regarding “798941 (antisense kA*kA*kA*dA*dA*dA*dA*d[5mC]*dG*dA*d[5mC]*d[5mC]*dA*kA*kA*kG) [compound 798941]”, the “% Inhibition” value is listed as 40%.
On to “798942 (antisense k[5mC]*kG*kA*dG*dA*dA*dG*dA*dA*dG*dA*dA*dA*kA*k[5mC]*k[5mC]) [compound 798942]”, for which the “% Inhibition” value stood at 35%.
Turning to “798943 (antisense k[5mC]*kG*kA*dG*dG*dA*d[5mC]*dG*dA*dG*dA*dA*dG*kA*kA*kG) [compound 798943]”, the “% inhibition of SMAD7 mRNA expression” value is 13%.
With “798944 (antisense kA*kA*kA*d[5mC]*dG*dA*dG*dG*dA*d[5mC]*dG*dA*dG*kA*kA*kG) [compound 798944]”, the “% inhibition of SMAD7 mRNA expression” value is 3%.
Turning to “798945 (antisense k[5mC]*kA*k[5mC]*dA*dA*dA*d[5mC]*dG*dA*dG*dG*dA*d[5mC]*kG*kA*kG) [compound 798945]”, the “% inhibition of SMAD7 mRNA expression” value is 19%.
As to “798946 (antisense kG*kA*kA*d[5mC]*dA*d[5mC]*dA*dA*dA*d[5mC]*dG*dA*dG*kG*kA*k[5mC]) [compound 798946]”, the “% inhibition of SMAD7 mRNA expression” value stood at 4%.
As for “798947 (antisense kA*k[5mC]*kA*dG*dA*dA*d[5mC]*dA*d[5mC]*dA*dA*dA*d[5mC]*kG*kA*kG) [compound 798947]”, the “% inhibition of SMAD7 mRNA expression” value turned out to be 52%.
As for “798948 (antisense kG*k[5mC]*kG*dA*dA*dA*d[5mC]*dA*dA*dA*dA*d[5mC]*dA*kG*kA*kA) [compound 798948]”, the “% inhibition of SMAD7 mRNA expression” value was found to be 56%.
Same read-out and setting: for “798949 (antisense kA*kG*kA*dG*d[5mC]*dG*dA*dA*dA*d[5mC]*dA*dA*dA*kA*k[5mC]*kA) [compound 798949]” the value was 55%.
On the same count and under the same terms, the result for “798950 (antisense k[5mC]*kA*kA*dA*dG*dA*dG*d[5mC]*dG*dA*dA*dA*d[5mC]*kA*kA*kA) [compound 798950]” reads 0%; that for “798951 (antisense kT*k[5mC]*kT*d[5mC]*dA*dA*dA*dG*dA*dG*d[5mC]*dG*dA*kA*kA*k[5mC]) [compound 798951]”, 37%.
In the case of “798952 (antisense kT*kA*kT*dT*dT*d[5mC]*dT*d[5mC]*dA*dA*dA*dG*dA*kG*k[5mC]*kG) [compound 798952]”, the “% inhibition of SMAD7 mRNA expression” value came to 61%.
“798953 (antisense kA*kG*k[5mC]*dT*dA*dT*dT*dT*d[5mC]*dT*d[5mC]*dA*dA*kA*kG*kA) [compound 798953]”: the “% Inhibition” value amounted to 17%.
Regarding “798955 (antisense kT*kT*k[5mC]*dA*dT*dA*dA*dG*d[5mC]*dT*dA*dT*dT*kT*k[5mC]*kT) [compound 798955]”, the “% Inhibition” value was determined as 15%.
As for “798956 (antisense k[5mC]*kT*kT*dT*dT*d[5mC]*dA*dT*dA*dA*dG*d[5mC]*dT*kA*kT*kT) [compound 798956]”, the “% Inhibition” value was found to be 22%.
